The record followed here is patent publication US20240218022A1, “ANTI-VISTA MACROCYCLIC PEPTIDES AND COMPOSITIONS” (BRISTOL-MYERS SQUIBB COMPANY, priority 2022, published 2024).

Starred links: 1 amine or outer side, 2 acyl side, 3 side chain; linkers in the order of their positions; H or OH if unused. Positions of bridges follow the written chain, without caps; N, C: chain ends. Non-standard residues stand in square brackets, D forms with d. Residues, ends and D or L forms follow the SMILES beside them. Phe(4-CONH2) = NC(=O)c1ccc(C[C@H](N)C(=O)O)cc1; Phe(4-COOH) = N[C@@H](Cc1ccc(C(=O)O)cc1)C(=O)O; γGlu = O=C(O)[C@H](CCC(=O)[*:2])N[*:1]; 4Pal = N[C@@H](Cc1ccncc1)C(=O)O; NMeL = CN[C@@H](CC(C)C)C(=O)O; Ahp(2) = CCCCC[C@H](N)C(=O)O; NMeNle = CCCC[C@H](NC)C(=O)O; Tle = CC(C)(C)[C@H](N)C(=O)O; NMeS = CN[C@@H](CO)C(=O)O; NHexGly = CCCCCCNCC(=O)O; Nle = CCCC[C@H](N)C(=O)O; Aun = NCCCCCCCCCCC(=O)O; Nva = CCC[C@H](N)C(=O)O; AEEA = NCCOCCOCC(=O)O

This assay deals with T1, mouse VISTA (mVISTA) (Mus musculus, UniProt Q9D659).
T1 construct: expressed in transfected cells; host or cells: Human embryonic kidney 293T cells
T1 sequence (Q9D659 33-308): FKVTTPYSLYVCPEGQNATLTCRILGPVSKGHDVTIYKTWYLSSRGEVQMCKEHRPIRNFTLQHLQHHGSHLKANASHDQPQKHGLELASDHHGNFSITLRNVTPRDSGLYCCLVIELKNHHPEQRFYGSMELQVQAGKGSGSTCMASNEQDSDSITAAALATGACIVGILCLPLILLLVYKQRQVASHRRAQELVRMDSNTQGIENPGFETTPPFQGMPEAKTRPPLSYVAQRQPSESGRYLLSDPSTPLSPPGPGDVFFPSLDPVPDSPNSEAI
Description: Cell-Based Binding High-Content Assay For mVISTA (HC CBA mVISTA). As to conditions: read-out: HC CBA mVISTA IC50. The method, boiled down:
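mVISTA-293T, 4,000 cells/well; cpd ± washout step; biotin-peptide 2 nM final, 30 min RT; SA-Alexa 647 30 min; formaldehyde/Hoechst fix; HCS imaging; 4PL IC50.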

The IC50 is the midpoint of a concentration-inhibition curve. As for `CCCCCCN1CC(=O)N[C@@H](Cc2ccc(O)cc2)C(=O)N[C@@H](CCCC)C(=O)N[C@@H](CC(N)=O)C(=O)N[C@@H](CCCNC(=N)N)C(=O)N(C)[C@@H](CCCC)C(=O)N[C@@H](CCCCC)C(=O)N2CCC[C@H]2C(=O)N[C@@H](C(C)(C)C)C(=O)N[C@@H](CO)C(=O)N[C@H](C(=O)NCCOCCOCC(=O)N[C@@H](CCC(=O)NCCOCCOCC(=O)NCCCCCCCCCCC(=O)O)C(=O)O)CSCC(=O)N[C@@H](Cc2ccc(C(=O)O)cc2)C(=O)N[C@@H](Cc2c[nH]c3ccccc23)C(=O)N[C@@H](CC(=O)O)C1=O` [compound 2256] ({CH2CO}-[Phe(4-COOH)]WD[NHexGly]Y[Nle]NR[NMeNle][Ahp(2)]P[Tle]SC[AEEA][γGlu][AEEA][Aun]-OH; thioether N-14), the IC50 was 13.8 nM.

With `CCCCCCN1CC(=O)N[C@@H](Cc2ccc(O)cc2)C(=O)N[C@@H](CCCC)C(=O)N[C@@H](CC(N)=O)C(=O)N[C@@H](CCCNC(=N)N)C(=O)N(C)[C@@H](CCCC)C(=O)N[C@@H](CCCCC)C(=O)N2CCC[C@H]2C(=O)N[C@@H](C(C)(C)C)C(=O)N[C@@H](CO)C(=O)N[C@H](C(=O)NCCOCCOCC(=O)N[C@@H](CCC(=O)NCCOCCOCC(=O)NCCCCCCCCCCC(=O)O)C(=O)O)CSCC(=O)N[C@@H](Cc2ccncc2)C(=O)N[C@@H](Cc2ccc(O)cc2)C(=O)N[C@@H](CC(=O)O)C1=O` [compound 2257] ({CH2CO}-[4Pal]YD[NHexGly]Y[Nle]NR[NMeNle][Ahp(2)]P[Tle]SC[AEEA][γGlu][AEEA][Aun]-OH; thioether N-14), the IC50 came out at 40.4 nM.

Turning to `CCCCCCN1CC(=O)N[C@@H](Cc2ccc(O)cc2)C(=O)N[C@@H](CCC)C(=O)N[C@@H](CC(N)=O)C(=O)N[C@@H](CCCNC(=N)N)C(=O)N(C)[C@@H](CCCC)C(=O)N[C@@H](CCCCC)C(=O)N2CCC[C@H]2C(=O)N[C@@H](C(C)(C)C)C(=O)N[C@@H](CO)C(=O)N[C@H](C(=O)NCCOCCOCC(=O)N[C@@H](CCC(=O)NCCOCCOCC(=O)NCCCCCCCCCCC(=O)O)C(=O)O)CSCC(=O)N[C@@H](Cc2ccccc2)C(=O)N[C@@H](Cc2c[nH]c3ccccc23)C(=O)N[C@@H](CC(=O)O)C1=O` [compound 2258] ({CH2CO}-FWD[NHexGly]Y[Nva]NR[NMeNle][Ahp(2)]P[Tle]SC[AEEA][γGlu][AEEA][Aun]-OH; thioether N-14), the half-inhibitory concentration (IC50) is 36.9 nM.

For `CCCCCCN1CC(=O)N[C@@H](Cc2ccc(O)cc2)C(=O)N[C@@H](CCCC)C(=O)N[C@@H](CC(N)=O)C(=O)N[C@@H](CCCNC(=N)N)C(=O)N(C)[C@@H](CCCC)C(=O)N[C@@H](CCCCC)C(=O)N2CCC[C@H]2C(=O)N[C@@H](C(C)(C)C)C(=O)N[C@@H](CO)C(=O)N[C@H](C(=O)NCCOCCOCC(=O)N[C@@H](CCC(=O)NCCOCCOCC(=O)NCCCCCCCCCCC(=O)O)C(=O)O)CSCC(=O)N[C@@H](Cc2ccc(C(N)=O)cc2)C(=O)N[C@@H](Cc2ccc(O)cc2)C(=O)N[C@@H](CC(=O)O)C1=O` [compound 2259] ({CH2CO}-[Phe(4-CONH2)]YD[NHexGly]Y[Nle]NR[NMeNle][Ahp(2)]P[Tle]SC[AEEA][γGlu][AEEA][Aun]-OH; thioether N-14), the IC50 worked out at 38.1 nM.

In the case of `CCCCCCN1CC(=O)N[C@@H](Cc2ccc(O)cc2)C(=O)N[C@@H](CC(C)C)C(=O)N[C@@H](CC(N)=O)C(=O)N[C@@H](CCCNC(=N)N)C(=O)N(C)[C@@H](CCCC)C(=O)N[C@@H](CCCCC)C(=O)N2CCC[C@H]2C(=O)N[C@@H](C(C)(C)C)C(=O)N[C@@H](CO)C(=O)N[C@H](C(=O)NCCOCCOCC(=O)N[C@@H](CCC(=O)NCCOCCOCC(=O)NCCCCCCCCCCC(=O)O)C(=O)O)CSCC(=O)N[C@@H](Cc2ccccc2)C(=O)N[C@@H](Cc2ccc(O)cc2)C(=O)N[C@@H](CC(=O)O)C1=O` [compound 2260] ({CH2CO}-FYD[NHexGly]YLNR[NMeNle][Ahp(2)]P[Tle]SC[AEEA][γGlu][AEEA][Aun]-OH; thioether N-14), the IC50 worked out at 16 nM.

`CCCCCCN1CC(=O)N[C@@H](Cc2ccc(O)cc2)C(=O)N[C@@H](CC(C)C)C(=O)N[C@@H](CC(N)=O)C(=O)N[C@@H](CCCNC(=N)N)C(=O)N(C)[C@@H](CCCC)C(=O)N[C@@H](CCCCC)C(=O)N2CCC[C@H]2C(=O)N[C@@H](C(C)(C)C)C(=O)N[C@@H](CC(=O)O)C(=O)N[C@H](C(=O)NCCOCCOCC(=O)N[C@@H](CCC(=O)NCCOCCOCC(=O)NCCCCCCCCCCC(=O)O)C(=O)O)CSCC(=O)N[C@@H](Cc2ccccc2)C(=O)N[C@@H](Cc2ccc(O)cc2)C(=O)N[C@@H](CC(=O)O)C1=O` [compound 2261] ({CH2CO}-FYD[NHexGly]YLNR[NMeNle][Ahp(2)]P[Tle]DC[AEEA][γGlu][AEEA][Aun]-OH; thioether N-14): the half-maximal inhibitory concentration (IC50) is 23.8 nM.

In the case of `CCCCCCN1CC(=O)N[C@@H](Cc2ccc(O)cc2)C(=O)N[C@@H](CC(C)C)C(=O)N[C@@H](CC(N)=O)C(=O)N[C@@H](CCCNC(=N)N)C(=O)N(C)[C@@H](CO)C(=O)N[C@@H](CCCCC)C(=O)N2CCC[C@H]2C(=O)N[C@@H](C(C)(C)C)C(=O)N[C@@H](CO)C(=O)N[C@H](C(=O)NCCOCCOCC(=O)N[C@@H](CCC(=O)NCCOCCOCC(=O)NCCCCCCCCCCC(=O)O)C(=O)O)CSCC(=O)N[C@@H](Cc2ccccc2)C(=O)N[C@@H](Cc2ccc(O)cc2)C(=O)N[C@@H](CC(=O)O)C1=O` [compound 2262] ({CH2CO}-FYD[NHexGly]YLNR[NMeS][Ahp(2)]P[Tle]SC[AEEA][γGlu][AEEA][Aun]-OH; thioether N-14), the concentration for half-maximal inhibition (IC50) worked out at 39.8 nM.

With `CCCCCCN1CC(=O)N[C@@H](Cc2ccc(O)cc2)C(=O)N[C@@H](CC(C)C)C(=O)N[C@@H](CC(N)=O)C(=O)N[C@@H](CCCNC(=N)N)C(=O)N(C)[C@@H](CC(C)C)C(=O)N[C@@H](CCCCC)C(=O)N2CCC[C@H]2C(=O)N[C@@H](C(C)(C)C)C(=O)N[C@@H](CO)C(=O)N[C@H](C(=O)NCCOCCOCC(=O)N[C@@H](CCC(=O)NCCOCCOCC(=O)NCCCCCCCCCCC(=O)O)C(=O)O)CSCC(=O)N[C@@H](Cc2ccccc2)C(=O)N[C@@H](Cc2c[nH]c3ccccc23)C(=O)N[C@@H](CC(=O)O)C1=O` [compound 2263] ({CH2CO}-FWD[NHexGly]YLNR[NMeL][Ahp(2)]P[Tle]SC[AEEA][γGlu][AEEA][Aun]-OH; thioether N-14), the half-inhibitory concentration (IC50) was determined as 25.1 nM.

Turning to `CCCCCCN1CC(=O)N[C@@H](Cc2ccc(O)cc2)C(=O)N[C@@H](CC(C)C)C(=O)N[C@@H](CC(N)=O)C(=O)N[C@@H](CCCNC(=N)N)C(=O)N(C)[C@@H](CO)C(=O)N[C@@H](CCCCC)C(=O)N2CCC[C@H]2C(=O)N[C@@H](C(C)(C)C)C(=O)N[C@@H](CC(=O)O)C(=O)N[C@H](C(=O)NCCOCCOCC(=O)N[C@@H](CCC(=O)NCCOCCOCC(=O)NCCCCCCCCCCC(=O)O)C(=O)O)CSCC(=O)N[C@@H](Cc2ccccc2)C(=O)N[C@@H](Cc2c[nH]c3ccccc23)C(=O)N[C@@H](CC(=O)O)C1=O` [compound 2264] ({CH2CO}-FWD[NHexGly]YLNR[NMeS][Ahp(2)]P[Tle]DC[AEEA][γGlu][AEEA][Aun]-OH; thioether N-14), the 50% inhibitory concentration (IC50) was found to be 24.7 nM.

With `CCCCCCN1CC(=O)N[C@@H](Cc2ccc(O)cc2)C(=O)N[C@@H](CC(C)C)C(=O)N[C@@H](CC(N)=O)C(=O)N[C@@H](CCCNC(=N)N)C(=O)N(C)[C@@H](CCCC)C(=O)N[C@@H](CCCCC)C(=O)N2CCC[C@H]2C(=O)N[C@@H](C(C)(C)C)C(=O)N[C@@H](CC(=O)O)C(=O)N[C@H](C(=O)NCCOCCOCC(=O)N[C@@H](CCC(=O)NCCOCCOCC(=O)NCCCCCCCCCCC(=O)O)C(=O)O)CSCC(=O)N[C@@H](Cc2ccccc2)C(=O)N[C@@H](Cc2c[nH]c3ccccc23)C(=O)N[C@@H](CC(=O)O)C1=O` [compound 2265] ({CH2CO}-FWD[NHexGly]YLNR[NMeNle][Ahp(2)]P[Tle]DC[AEEA][γGlu][AEEA][Aun]-OH; thioether N-14), the concentration for half-maximal inhibition (IC50) came to 17.8 nM.

Turning to `CCCCCCN1CC(=O)N[C@@H](Cc2ccc(O)cc2)C(=O)N[C@@H](CC(C)C)C(=O)N[C@@H](CC(N)=O)C(=O)N[C@@H](CCCNC(=N)N)C(=O)N(C)[C@@H](CO)C(=O)N[C@@H](CCCCC)C(=O)N2CCC[C@H]2C(=O)N[C@@H](C(C)(C)C)C(=O)N[C@@H](CO)C(=O)N[C@H](C(=O)NCCOCCOCC(=O)N[C@@H](CCC(=O)NCCOCCOCC(=O)NCCCCCCCCCCC(=O)O)C(=O)O)CSCC(=O)N[C@@H](Cc2ccccc2)C(=O)N[C@@H](Cc2c[nH]c3ccccc23)C(=O)N[C@@H](CC(=O)O)C1=O` [compound 2266] ({CH2CO}-FWD[NHexGly]YLNR[NMeS][Ahp(2)]P[Tle]SC[AEEA][γGlu][AEEA][Aun]-OH; thioether N-14), the IC50 was found to be 37.9 nM.

Take `CCCCCCN1CC(=O)N[C@@H](Cc2ccc(O)cc2)C(=O)N[C@@H](CC(C)C)C(=O)N[C@@H](CC(N)=O)C(=O)N[C@@H](CCCNC(=N)N)C(=O)N(C)[C@@H](CC(C)C)C(=O)N[C@@H](CCCCC)C(=O)N2CCC[C@H]2C(=O)N[C@@H](C(C)(C)C)C(=O)N[C@@H](CC(=O)O)C(=O)N[C@H](C(=O)NCCOCCOCC(=O)N[C@@H](CCC(=O)NCCOCCOCC(=O)NCCCCCCCCCCC(=O)O)C(=O)O)CSCC(=O)N[C@@H](Cc2ccccc2)C(=O)N[C@@H](Cc2ccc(O)cc2)C(=O)N[C@@H](CC(=O)O)C1=O` [compound 2267] ({CH2CO}-FYD[NHexGly]YLNR[NMeL][Ahp(2)]P[Tle]DC[AEEA][γGlu][AEEA][Aun]-OH; thioether N-14): the IC50 was determined as 28.9 nM.
